{
  "source": "patent US9271916B2",
  "about": "“Composition for reducing skin wrinkles including PDE5 inhibitor” (SK Chemicals Co., Ltd., priority 2011, dated 2016)",
  "key": {"[1]": {"tested_on": "matrix metalloproteinase-1 (MMP-1) expression in normal human dermal fibroblasts", "test": "Inhibition of MMP-1 expression in normal human dermal fibroblasts", "format": "cell-based", "details": "NHDF, negative control 189.7±10.9%, p<0.01", "protocol": "Effects by mirodenafil hydrochloride, test compound, on inhibition of matrix metalloproteinase-1 (MMP-1) expression was evaluated with normal human dermal fibroblasts.\n(−)Epigallocatechin gallate (EGCG) (Sigma-Aldrich Co., U.S.A.) was used as a positive control because there are lots of comparative experimental data using the EGCG. EGCG has been reported to be effective in inhibition of MMP-1 expression when evaluating with fibroblasts. DMSO (Dimethyl sulfoxide) was used as a diluent.\n(§1) 0.01 mL of aliquot was taken from 10 mM of mirodenafil hydrochloride stock solution, and 9.99 mL of DMSO was added to the aliquot to make 10,000 nM of sample. This sample was additionally diluted to 1,000 nM of concentration right before being used. 10,000 nM and 1,000 nM of solutions were diluted 100 times with serum-free medium to […], right before being applied.\nFor making a positive control, 10,000 μM (4.584 mg/mL) of EGCG was prepared by dissolving it with serum-free medium, and then the solution was diluted to 10 μM (0.0046 mg/mL).\nBCA protein assay kit (Lot No.: KK140637, Pierce Biotechnology Inc., USA) was used for total protein analysis, and matrix metalloproteinase-1 (MMP-1), human, biotrak ELISA system kit (Lot No.: 398061, GE Healthcare, UK) was used for MMP-1 analysis.\nThe contents of MMP-1 in wells to which negative control, test compound or positive control was added were divided by the content of total protein. The adjusted content of MMP-1 was used to calculate “Inhibition rate of MMP-1 expression” with the following equation. This test was repeated three times. Inhibition rate of MMP-1 expression (%)=A/B×100\nA: MMP-1 amount of sample or positive control\nB: MMP-1 amount of negative control\nThe other materials and methods which were not mentioned in detail were similar to those of Example 3."}, "[2]": {"tested_on": "UVB-induced skin wrinkles", "test": "Wrinkle reduction in UVB-irradiated hairless mice", "format": "in vivo", "details": "for Wrinkle reduction (skin photographs): 10 mM (about 5%), applied twice daily for 14 days after wrinkle induction", "protocol": "An examination was made as to whether the PDE5 inhibitors can substantially reduce skin wrinkles of animal models. Hairless mice, aged 7 weeks, were irradiated with UVB (290-320 nm, 312 nm) to induce wrinkles. The compound or the control was applied to each mouse and its influence on the induced wrinkles was evaluated. More specifically, the mice were irradiated with 60 mJ/cm^2 (1 minimal […] dose (MED)) for 3 days weekly during the first and second week after wrinkling, 120 mJ/cm^2 (2 MED) for 3 days during the third week after wrinkling, 180 mJ/cm^2 (3 MED) for 3 days during the fourth week after wrinkling, 240 mJ/cm^2 (4 MED) for 3 days weekly during the fifth to eighth week after wrinkling, and 240 mJ/cm^2 (4 MED) for 5 days weekly during the ninth to fifteenth week after wrinkling. During the sixteenth and seventeenth week after wrinkling, about 0.5 ml of squalene-OOH, an oxidation product of squalene by UV irradiation, was applied once using a brush to induce deeper wrinkles. Thereafter, the compound or the control was applied to each mouse twice daily for 14 days."}, "[3]": {"tested_on": "type I procollagen production in normal human dermal fibroblasts (NHDF, cell line 7F3802)", "test": "Procollagen type I production in normal human dermal fibroblasts", "format": "cell-based", "details": "48 hours, negative control 100.0±0.0%, p<0.01", "protocol": "Effects by mirodenafil hydrochloride, test compound, on production of type I collagen was evaluated with normal human dermal fibroblasts.\nCell line 7F3802 was used as a normal human dermal fibroblast (hereinafter, ‘NHDF’). Frozen NHDF was thawed and subcultured, and passages 5 to 7 were used for this test.\nL-Ascorbic acid (Sigma-Aldrich Co., U.S.A.) was used as a positive control because there are lots of comparative experimental data using l-ascorbic acid. L-Ascorbic acid has been reported to be effective in acceleration of collagen production when evaluating with fibroblasts. DMSO (Dimethyl sulfoxide) was used as a diluent.\nas §1\nFor making a positive control, 20,000 μM (3.522 mg/mL) of 1-ascorbic acid was prepared by dissolving it with serum-free medium, and then the solution was diluted to 200 μM.\nTwo cell culture media were used in this experiment. Complete medium consisting of FBS (fetal bovine serum), Penicillin-Streptomycin (10,000 U/mL of penicillin and 10,000 ug of streptomycin) and DMEM/F12 (dulbecco's modified eagle's medium/F12) was used during subculture before test compound was applied, and then serum-free medium consisting of Penicillin-Streptomycin and DMEM (dulbecco's modified eagle's medium) was used.\nPre-treatment (cell culture and treatment of test compound) was performed as follows: After culturing in complete medium, 400 μl of NHDF was seeded into 48-well plates (1×10^5 cells/400 μl/well), and cultured at a condition of 37° C. and 5% CO2 incubator (MCO-20AIC, Sanyo, Japan) for 24 hours. After culture was completed, the remaining media were removed from each well. 500 μl of D-PBS (D-phosphate buffered saline) was added to each well to wash wells. […]"}},
  "note": "Structures can show the parent of a compound that is named as a salt.",
  "data": [
    {"compound": "(−)Epigallocatechin gallate [EGCG]", "values": [
      {"measurement": "MMP-1 expression (% of control)", "setting": "[1]; 0.0046 mg/mL (10 μM)", "value": "102.3±18.7", "unit": "%"}
    ]},
    {"compound": "CCCOc1ccc(S(=O)(=O)N2CCN(CCO)CC2)cc1-c1nc2c(CCC)cn(CC)c2c(=O)[nH]1.Cl.Cl", "note": "[mirodenafil 2HCl]", "values": [
      {"measurement": "Wrinkle reduction (skin photographs)", "setting": "[2]", "value": "Wrinkle reduction was observed"}
    ]},
    {"compound": "O=C1O[C@H]([C@@H](O)CO)C(O)=C1O", "note": "[L-Ascorbic acid]", "values": [
      {"measurement": "Synthesis rate of procollagen type I", "setting": "[3]; 35.2 μg/mL (200 μM)", "value": "175.7±11.5", "unit": "%"}
    ]},
    {"compound": "CC1=C(/C=C/C(C)=C/C=C/C(C)=C/C(=O)O)C(C)(C)CCC1", "note": "[retinoic acid]", "values": [
      {"measurement": "Formation and peeling of cornified layers of the skin", "setting": "[2]; 0.05%, topical, twice then once daily", "value": "Cornified layers were formed and continuously peeled"}
    ]},
    {"compound": "CCCOc1ccc(S(=O)(=O)N2CCN(CCO)CC2)cc1-c1nc2c(CCC)cn(CC)c2c(=O)[nH]1", "note": "[mirodenafil free base, mirodenafil]", "values": [
      {"measurement": "Wrinkle reduction (skin photographs)", "setting": "[2]", "value": "Wrinkle reduction was observed"}
    ]},
    {"compound": "CCCOc1ccc(S(=O)(=O)N2CCN(CCO)CC2)cc1-c1nc2c(CCC)cn(CC)c2c(=O)[nH]1", "note": "[mirodenafil hydrochloride]", "values": [
      {"measurement": "Synthesis rate of procollagen type I", "setting": "[3]; 10 nM", "value": "149.7±12.4", "unit": "%"},
      {"measurement": "Synthesis rate of procollagen type I", "setting": "[3]; 100 nM", "value": "189.8±6.4", "unit": "%"},
      {"measurement": "MMP-1 expression (% of control)", "setting": "[1]; 10 nM", "value": "115.8±9.1", "unit": "%"},
      {"measurement": "MMP-1 expression (% of control)", "setting": "[1]; 100 nM", "value": "97.9±8.5", "unit": "%"}
    ]}
  ]
}
